Measurements: patent US8412459B2, “Method for determining the allergic potential of a compound” (Vlaamse Instelling Voor Technologisch Onderzoek (VITO), priority 2006, dated 2013)

How the values were obtained:
[1] = tested on: CD34-DCs; test: RT-PCR gene expression in CD34-DCs; classification model (lda + quadratic discriminant) on NINJ, PBEF1, CCR7, CREM, leave-one-compound-out cross validation; conditions: LFC of NINJ, exposure 6, 12 and 24 h at concentration of EC20, on average 3 individuals, test compound left out of training
[2] = a priori known, from literature / in vivo tests; cited from earlier work

Row | Compound | class predicted by the classification model in cross validation (sensitizer / non-sensitizer) [1] | known sensitizing classification / strength [2]
1 | C[S+](C)[O-] [DMSO, dimethylsulfoxide] | non-sensitizers | –
2 | O=[N+]([O-])c1ccc(Cl)c([N+](=O)[O-])c1 [DNCB, 1-chloro-2,4-dinitrobenzene] | – | strong sensitizer
3 | C=CCc1ccc(O)c(OC)c1 [Eugenol, 2-Methoxy-4-(2-propenyl)phenol] | – | weak sensitizing capacity
4 | CCC[CH2][Sn]([Cl])([CH2]CCC)[CH2]CCC [TBT, Tributyltin chloride] | non-sensitizers | –
5 | tritonX-100 | non-sensitizers | –
